Assay [1] concerns Eμ-Mycp19^Arf−/− mouse lymphoma cells. As to the kind of experiment: Drug treatment and FACS viability (propidium iodide) to determine LD80-90. It is filed as cell-based. Particulars: for IC (80-90): Mus musculus, read-out: Concentration used (LD80-90).
Assay [2] has as its system lymphoma cells expressing shATM, shChk2 or shp53. As to the kind of experiment: shATM-Chk2-p53 resistance signature. It is filed as cell-based, mouse. As for the experimental part:
(3d) A comparison of the shTopoI and shTopoII response signatures for APG and NSC3852 with response signatures derived from established Topol (CPT and CPT11) and TopoII poisons (Dox, Mito and VP-16). […] In each case, one million cells were plated before treatment.
Eμ-Mycp19^Arf−/− cells were counted and seeded at 1 million cells per ml in 48-well plates and treated with various concentrations of drugs. To approximate therapeutic situations in which drug dose decreases over time, half of the volume from each experiment was removed and replenished with fresh medium every 24 h. Cells were analyzed by fluorescence-activated cell sorting (FACS), with propidium iodide as a viability marker. LD80-90 of drugs are defined as concentrations at which the lowest viability reading out of three FACS time points (24, 48 and 72 h) is between 10% and 20%. After drug dose was determined, Eμ-Mycp19^Arf−/− cells were infected with retroviruses encoding shRNAs targeting particular genes. Individual infected cell populations were counted and seeded at 1 million cells per ml in 48-well plates and treated with drugs using the aforementioned protocol. At 72 h, treated and untreated cells were analyzed by flow cytometry. GFP percentages of live (PI-negative) cells were recorded and used to calculate relative resistance index.
To compare the relative level of chemoresistance and sensitization conferred by each gene knockdown, the concept of RI (see definition above) was introduced, to more accurately analyze the GFP competition results. The value of RI is defined as X. The biological meaning of this factor X is that in a mixture of uninfected and infected (knockdown) cells, the infected (knockdown) cells will be X-fold as likely to survive drug treatment when compared to uninfected cells. By this definition of X, if one out of n uninfected cells survives a drug treatment, then X our of n infected cells should survive. If the total number of uninfected and infected cells are defined as T and the GFP percentage of untreated population are defined as G1, then the number of surviving, uninfected cells (un) can be defined as n−un=T×(1−G1)×1/n, and the number of surviving, infected cells (in) can be defined as n−in=Tx G1×X/n. […] From this equation, it can be derived that X=(G2−G1×G2)/(G1−G1×G2). This equation was used in the studies to compute RI values.

The subject of assay [3] is Eμ-Mycp19^Arf−/− lymphoma cells expressing shRNAs targeting the Bcl2 family, p53 and its activating kinases. Kind of assay: 29-shRNA GFP competition assay, resistance index (RI), clustering and K-nearest-neighbors. The class given is cell-based, mouse.
For assay [4], the system named is cells expressing shTopoI or shTopoII. Kind of assay: shTopoI and shTopoII response signatures. The settings on record: FIG. 3d. The class given is cell-based, mouse.
In a further assay the test system is γ-H2AX. Kind of assay: DNA damage response by western blot (γ-H2AX phosphorylation) in TopoI and TopoII knockdown cells. It is filed as cell-based. (In western blotting, separated proteins are transferred to a membrane and probed.)
Assay [5] relates to shTopoII, shTopoI or vector control-expressing cells. Kind of assay: Long-term survival assay, surviving cells 12 days after drug treatment. The class given is cell-based. An excerpt:
Identification and functional characterization of ill-defined genotoxic drugs. […] (3b) The shATM-Chk2-p53 response signature for apigenin (APG) and NSC3852 (NSC). (3c) The branching pattern for the 18 reference compounds plus APG and NSC. APG clusters with the TopoII poisons Dox and VP-16, whereas NSC clusters with the Topol poison CPT. (3d) A comparison of the shTopoI and shTopoII response signatures for APG and NSC3852 with response signatures derived from established Topol (CPT and CPT11) and TopoII poisons (Dox, Mito and VP-16). […] In each case, one million cells were plated before treatment. Data shown are mean±s.e.m. from three Independent experiments.

For a further assay, the system named is Bim. Kind of assay: Bim expression level by western blot. It is filed as cell-based, mouse. The settings on record: lymphoma cells treated for 6 or 9 hours.
The mark [6] stands for this setting: concentration at which 80-90% of uninfected lymphoma cells were killed, lowest viability of 24, 48 and 72 h between 10% and 20%.
Setting [7] is: suppression of ATM, Chk2 and p53.
The mark [8] stands for this setting: shRNA targeting Bim (Bim-dependence).
Setting [9] is: shRNA targeting p53 (p53-independence).

Like-named read-outs stand apart in the source and are kept apart here.

Method for Bim: 9b, Lymphoma cells were treated with SAHA or DAC for 6 or 9 hours. Bim expression level was analyzed by western blot.

For the molecule `COc1cccc2c1C(=O)c1c(O)c3c(c(O)c1C2=O)C[C@@](O)(C(=O)CO)C[C@@H]3O[C@H]1C[C@H](N)[C@H](O)[C@H](C)O1` [Doxorubicin], the IC (80-90) in assay [1] (setting [6]) worked out at 0.0162 µM. Also, the shATM-Chk2-p53 resistance signature result in assay [2] is recorded as “significant resistance”.
Take `N.N.[Cl][Pt][Cl]` [Cisplatin]: the “Concentration used (LD80-90)” value in assay [1] (setting [6]) came to 3.3 µM. Besides, in assay [2] (setting [7]), the shATM-Chk2-p53 resistance signature result was “significant resistance”.
As for `Nc1ncn([C@H]2C[C@H](O)[C@@H](CO)O2)c(=O)n1` [Decitabine], in assay [1] (setting [6]), the IC (80-90) came to 0.6 µM. Further, the log2RI entry in assay [3] (setting [8]) is “≈ 2”; in assay [3] (setting [9]) it was “≈ 0”.
As for `CC[C@@]1(O)C(=O)OCc2c1cc1n(c2=O)Cc2cc3ccccc3nc2-1` [Camptothecin], the IC (80-90) in assay [1] worked out at 0.0004 µM. Besides, in assay [2] (setting [7]), the shATM-Chk2-p53 resistance signature entry is listed as “significant resistance”.
`O=C(O)CCCc1ccc(N(CCCl)CCCl)cc1` [Chlorambucil]: the IC (80-90) in assay [1] was found to be 6.6 µM. Further, the shATM-Chk2-p53 resistance signature entry in assay [2] (setting [7]) is “significant resistance”.
Turning to `O=c1cc(-c2ccc(O)cc2)oc2cc(O)cc(O)c12` [Apigenin], the IC (80-90) in assay [1] (setting [6]) is 0.1 µM. Further, in assay [2] (setting [7]), the shATM-Chk2-p53 resistance signature result was “strong shATM-Chk2-p53 resistance signature”. In addition, in assay [4], the “shTopoI and shTopoII resistance and sensitivity pattern” value was “shTopoII resistance and shTopoI sensitivity”. The “induction of DNA damage” value with γ-H2AX (TopoII-deficient cells) is given as “failed to induce DNA damage”. Also, the long-term survival entry in assay [5] (TopoII deficiency) was “significant protection”.
Turning to `O=Nc1ccc(O)c2ncccc12` [NSC3852], in assay [1] (setting [6]), the “Concentration used (LD80-90)” value was determined as 1.7 µM. Besides, in assay [2] (setting [7]), the shATM-Chk2-p53 resistance signature entry is reported as “strong shATM-Chk2-p53 resistance signature”. For the same molecule, the “shTopoI and shTopoII resistance and sensitivity pattern” value in assay [4] is “characteristic pattern of resistance, similar to established TopoI poisons camptothecin and irinotecan”. Besides, in the assay with γ-H2AX (TopoI-deficient cells), the “induction of DNA damage” value is reported as “failed to induce DNA damage”. In assay [5] (TopoI deficiency), the long-term survival result is listed as “significantly protected”.
As for `O=C(CCCCCCC(=O)Nc1ccccc1)NO` [Vorinostat, suberoylanilide hydroxamic acid], the IC (80-90) in assay [1] (setting [6]) came out at 0.2 µM. The log2RI entry was “≈ 2” in assay [3] (setting [8]) and “≈ 0” in assay [3] (setting [9]). In addition, in assay [3] (shRNA targeting Chop, FIG. 1d), the “effect of suppression of the Bim transcription regulator Chop on drug response” value is “resistance”. In the assay with Bim, the “levels of the proapoptotic BH3-only protein Bim” value is given as “increase”.

For the origin of these results see patent publication US9683231B2, “RNAi-based method of drug screening and characterization” (Massachusetts Institute of Technology, priority 2010, dated 2017).
